Reference: US20070025914A1, “Bronchioalveolar stem cells and uses thereof” (priority 2005, published 2007)
Where “and” joins values, the source holds several entries; their conditions need not be identical. Equal values may be shown once.

What was measured:
BASCs [1] = assay: BASC incidence after intranasal bleomycin; assay type: in vivo, mouse
Procedure: Bleomycin is administered intranasally, and at various time points after treatment, the incidence of BASCs is determined.

AT2 cells = assay: AdGFP infection followed by IF for SP-C or CCA after naphthalene; assay type: in vivo, mouse; settings: 24 hr after AdGFP; control 7.8%; no significant increase
Source text: FIG. 7A). An even greater impact on tumor area was associated with naphthalene treatment; adenomas comprised a 6-, 12-, and 15-fold greater proportion of total lung area when initiated after airway damage in the three experiments (p=0.009; FIG. 7B).

Lox-K-ras lung tumors = assay: Naphthalene treatment before AdCre in LSL-K-ras G12D mice: tumor number and area; assay type: in vivo, mouse; settings: 6 weeks, three independent experiments, p=0.04
Procedure: We reasoned that the cellular requirements for adenocarcinoma formation could be dissected further by combining K-ras G12D activation with naphthalene treatment, which stimulates proliferation of BASCs in vivo (see FIG. 2). LSL-K-ras G12D mice and wild-type controls were treated with naphthalene; tumorigenesis was initiated by administering AdCre 24 hr to 3 days later, and mice were euthanized after 6 weeks to determine tumor incidence and size.
An even greater impact on tumor area was associated with naphthalene treatment; adenomas comprised a 6-, 12-, and 15-fold greater proportion of total lung area when initiated after airway damage in the three experiments (p=0.009; FIG. 7B).

BASCs [2] = assay: BrdU proliferation at the BADJ after naphthalene; assay type: in vivo, mouse; settings: all SP-Cpos CCApos
BASCs [3] = assay: BASC number per terminal bronchiole by dual IF for CCA and SP-C after naphthalene treatment
Procedure: To determine if airway damage affects BASCs, dual IF for CCA and SP-C is performed at various time points after naphthalene treatment. […] BrdU administered prior to euthanasia is used to determine if BASCs proliferate in response to naphthalene.
Lox-stop-lox K-ras G12D mice (Jackson et al. (2001) Genes Dev. 15, 3243-3248) and wild-type littermates were maintained in viral-free conditions on an F1 129 SvJ/C57BI6 background. Four- to eight-week-old mice were used for FACS or intranasal infections as described (Jackson et al. (2001) Genes Dev. 15, 3243-3248). Naphthalene (Aldrich) was dissolved in MAZOLA corn oil and injected i.p. at 275 mg/kg using sex- and background-matched control mice. […] 30 mg/kg BrdU in PBS was injected i.p. 2 hr before euthanasia for proliferation studies. Tissue preparation was as described (Jackson et al., 2001, supra). BASCs were quantified by scoring sections from at least three mice for each condition.

[4] = tested on: BASCs (Sca-1pos CD45neg Pecamneg cells); assay: FACS analysis of BASC abundance after naphthalene treatment; assay type: in vivo, mouse

Row | Compound | BASC distribution (BASCs [1]; 7 days after bleomycin) | BASC numbers (BASCs [1]; 14 days after bleomycin, p=0.01) | BASC distribution (BASCs [1]; 28 days after bleomycin) | infected (GFPpos) cells that were SP-Cpos (AT2 cells) [%] | fold more tumors vs controls (corn oil, AdCre) (Lox-K-ras lung tumors) | time at which BrdUpos cells are first detected in the BADJ (BASCs [2]) [h] | terminal bronchioles with two or more BASCs (BASCs [3]; 1 week after naphthalene 275 mg/kg i.p., controls 16%±5%, p=0.03) | number of BASCs after naphthalene (BASCs [3]; any time point after naphthalene) | Clara cell loss (BASCs [3]; by 52 hr after naphthalene) | number of BASCs per BADJ (BASCs [3]; six to seven weeks after naphthalene) | abundance of BASCs, fold increase vs corn oil control ([4]; 1 week after treatment, p=0.04) [fold] | abundance of BASCs ([4]; 24 hr after naphthalene)
1 | Bleomycin | significantly different neither | Significant increases | significantly different neither |  |  |  |  |  |  |  |  | 
2 | c1ccc2ccccc2c1 [naphthalene, Naphthalene] |  |  |  | 10.5 | 1.3 fold and 2.2 fold and 2.3 fold | 52 | 30%±9% | did not significantly decrease | significant Clara cell loss | comparable to that in untreated lung | 1.3 | did not change
